US10214502B2, “Method of inhibiting apolipoprotein-E expression while increasing expression of at least one of LDL-receptor protein or AbcA1 protein comprising administering a small compound” (California State University, Fresno, priority 2016, dated 2019)
Entries after “also recorded” stand apart in the source; their conditions may differ.

Assays:
apoE3 = test: ELISA of apoE3 levels in conditioned media of compound-treated mouse cortical astrocyte cells; assay type: cell-based; details: 10 μM compound, 24 hours, normalized to cell protein, relative to DMSO treated cells
Protocol: ApoE inhibition can be readily determined by any one of several assays and techniques known to those of ordinary skill in the art, including the enzyme-linked immunosorbant assay (ELISA). In the experimental results shown in Table 2 and FIG. 5, the ELISA assay was carried out on cortical astrocyte cells from mice. Astrocyte cells produce apoE, LDLR and AbcA1 proteins.
The experiments involved treating mouse cortical astrocyte cells with the claimed compounds at 10 μM concentration for an incubation time of 24 hrs. DMSO solvent was used as a negative control, because the compounds were dissolved in DMSO when applied to the cells.
The ELISA technique involves immobilizing an apoE-specific capture antibody to a 96-well plate, addition of sample (conditioned medium from mouse cortical astrocyte cells treated with the compound for 24 hours), and detection of the bound apoE using a second apoE-specific biotinylated antibody and streptavidin-HRP.
The Mabtech ELISA kit detects the presence of the three apoE isoforms: apoE2, apoE3, and apoE4.
To obtain the data shown in Table 2 and FIG. 5, the mouse cortical astrocyte cells were maintained in DMEM medium (Invitrogen) supplemented with 10 mM HEPES, 1 mM sodium pyruvate, 4.5 g/L glucose, 1% penicillin/streptomycin, and 10% fetal bovine growth serum (Invitrogen) at 37° C., with 5% CO2.
The cells (6×10^4 cells/24-well plate) were grown for 1 day in RPMI, followed by a 24 hour equilibration in serum-free Opti-MEM (Life Technologies). Treatments were carried out in triplicate with […] of fresh Opti-MEM containing 10 μM of compound or vehicle (0.1% DMSO) for 24 hours. […] ApoE concentration in the sample was calculated based on a standard curve derived using known amounts of purified apoE (from Biodesign).
The protein levels in the cells in the 24-well plates were measured using BCA Protein Assay Kit (from Pierce) and used to normalize the data. […] Sample apoE3 concentrations were represented relative to the DMSO treated cells.
The bars in FIG. 5 reflect the respective mean level apoE3 in the media for each compound with an indication of one […].

intracellular apoE = test: SDS-PAGE/Western blot of intracellular apoE levels in E3 astrocyte cells; assay type: cell-based, mouse; details: 10 μM, 24 hrs, Western blot, FIGS. 6 and 7
Excerpt: (§1) Western blot protocol and analysis was used to determine the LDLR levels in the E3 astrocyte cells. The western blot, otherwise known as a protein immunoblot, is a widely used analytical technique used to detect specific proteins in a cell culture or tissue sample. It uses gel electrophoresis to separate proteins by 3-D structure or denatured proteins by the length of the polypeptide. The proteins are then transferred to a membrane (typically nitrocellulose or PVDF), where they are stained with antibodies specific to the target protein. […] FIGS. 6 and 7 show gel images showing the effects the claimed compounds have on the target proteins. The protein bands show the presence and amount of each target protein present in the media from treated cells (compound numbers shown in the column headers).
(§2) In this case, after the 24-hour culture period, the treated cell media from cells treated with each respective compound were run by electrophoresis on polyacrylamide gel containing sodium dodecyl sulfate (SDS). The proteins from the SDS-PAGE process were then transferred to a nitrocellulose […] and stained.
FIGS. 6 and 7 show the presence of the following proteins in mouse E3 astrocyte cells: AbcA1, LDLR, ApoE3, and GAPDH. […]
Intracellular apoE levels as measured in FIGS. 6 and 7 are the amounts of apoE inside of cells. […]

AbcA1 = test: SDS-PAGE/Western blot of AbcA1 expression in E3 astrocyte cells; assay type: cell-based, mouse; details: 10 μM, 24 hrs, Western blot, FIGS. 6 and 7
Excerpt: as §1, §2
(§3) FIGS. 6 and 7 show the presence of the following proteins in mouse E3 astrocyte cells: AbcA1, LDLR, ApoE3, and GAPDH. The GAPDH protein serves as the loading control protein for the western blot analysis. For each of the claimed compounds, FIGS. 6 and 7 show three samples run to determine the presence and amount of each indicated protein. The three samples for each treatment compound are indicated by the line under the compound number—the line stretches across three columns of protein bands.
AbcA1 protein plays a key role in regulating cholesterol in biological systems and therefore affects amyloid beta plaque formation. The goal of the biological screen (results shown in FIGS. 6 and 7) was to find compounds that prevent amyloid beta (Aβ) plaque formation, one of the deleterious causes of Alzheimer's Disease.
(§4) The E3 astrocyte cells (1.6×10^4 cells/96-well plate) were grown for 1 day in RPMI, followed by a 24 hour equilibration in serum-free Opti-MEM (Life Technologies). Treatments were carried out in triplicate with […] of fresh Opti-MEM containing 10 μM of compound or vehicle (0.1% DMSO) for 24 hours. After the incubation time, the cellular media was collected as samples.
(§5) The collected samples were prepared for SDS-PAGE and western blot analysis by centrifuging and then extracting the protein by TCA-precipitation. The extracted protein was then resuspended in a Tris buffer.
(§6) After incubation and collection, the samples were run on a SDS-polyacrylamide gel (10% SDS). The SDS-polyacrylamide gel comprises the following:
(§7) Each sample was prepared to run on the SDS-polyacrylamide gel. About 20 μL of each sample was prepared to be run in the gel. The samples were prepared comprising the following:
(§8) The SDS-PAGE process was run with SDS-PAGE running buffer (Tris base, glycine, and 10% SDS) at 150 V until the dye front reached the bottom of the gel.
(§9) For the western blot portion of the analysis, the separated protein bands in the gel are then transferred to a nitrocellulose membrane by methods well known in the art. Following the western blot transfer, the blot is rinsed several times with dH2O to remove the salts. After blocking unreacted sites on the nitrocellulose membrane, all protein bands are stained with 0.5% Ponceau S (0.5 g Ponceau S, 1 ml Glacial HAc, 99 ml dH2O) and the target protein antibody.
(§10) The antibodies used for staining AbcA1 were obtained from Novus (NB100-2068). The antibodies used for staining LDLR were obtained from MBL International (JM-3839). The antibodies used for staining intracellular apoE were obtained from Meridian Life Science (K74180B). The antibodies used for staining GAPDH were obtained from Santa Cruz (sc-25778).

LDLR = test: SDS-PAGE/Western blot of LDLR expression in E3 astrocyte cells; assay type: cell-based, mouse; details: 10 μM, 24 hrs, Western blot, FIGS. 6 and 7
Protocol: Experiments were set up to test whether the claimed compounds increase LDLR expression in cortical astrocyte cells. The experiments involved treating mouse cortical astrocyte cells (E3 astrocyte cells) with the claimed compounds at 10 μM concentration for an incubation time of 24 hrs. DMSO solvent was used as a negative control, because the compounds were dissolved in DMSO when applied to the cells.
as §1, §2, §3, §4, §5, §6, §7, §8, §9, §10

Row | SMILES | ApoE3 Levels in Cell Media, Average of Three Tests (apoE3) | ApoE3 Levels in Cell Media, Test 1 (apoE3) | ApoE3 Levels in Cell Media, Test 2 (apoE3) | ApoE3 Levels in Cell Media, Test 3 (apoE3) | intracellular apoE expression/levels compared to the DMSO control (intracellular apoE) | AbcA1 expression compared to the DMSO control (AbcA1) | LDLR expression (amount of LDLR protein) compared to the DMSO control (LDLR)
1 | CCCCN(CCCC)S(=O)(=O)c1cccc2ccccc12 [Compound 127, naphthalene-1-sulfonic acid dibutylamide] | 75.73 % of the DMSO control | 75.36 % of the DMSO control | 78.18 % of the DMSO control | 73.66 % of the DMSO control | decreasing | increases | increased
2 | CCN(CC)Cc1ccc2ccccc2c1 [Compound 140] | 90.9673 % of the DMSO control | 91.46 % of the DMSO control | 97.9104 % of the DMSO control | 83.54 % of the DMSO control | – | increases AbcA1 expression significantly; also recorded: increase | increased; also recorded: increasing LDLR expression slightly
